Measurements published in PubChem BioAssay (NCI).
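GI50 = concentration required for 50% inhibition of growth. TGI: concentration producing complete growth inhibition.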

Legend:
Assay in all cases: NCI anticancer screen, dose series, 384-well format
786-0 renal = test system: 786-0 renal
A498 renal = test system: A498 renal
A549 NSCLC = test system: A549 NSCLC
ACHN renal = test system: ACHN renal
BT-549 breast = test system: BT-549 breast
CAKI-1 renal = test system: CAKI-1 renal
CCRF-CEM leukemia = test system: CCRF-CEM leukemia
COLO 205 colon = test system: COLO 205 colon
DU-145 prostate = test system: DU-145 prostate
EKVX NSCLC = test system: EKVX NSCLC
HCC-2998 colon = test system: HCC-2998 colon
HCT-116 colon = test system: HCT-116 colon
HCT-15 colon = test system: HCT-15 colon
HOP-62 NSCLC = test system: HOP-62 NSCLC
HOP-92 NSCLC = test system: HOP-92 NSCLC
HS 578T breast = test system: HS 578T breast
HT29 colon = test system: HT29 colon
IGROV1 ovarian = test system: IGROV1 ovarian
K-562 leukemia = test system: K-562 leukemia
KM12 colon = test system: KM12 colon
LOX IMVI melanoma = test system: LOX IMVI melanoma
M14 melanoma = test system: M14 melanoma
MALME-3M melanoma = test system: MALME-3M melanoma
MCF7 breast = test system: MCF7 breast
MDA-MB-231 breast = test system: MDA-MB-231 breast
MDA-MB-435 melanoma = test system: MDA-MB-435 melanoma
MDA-MB-468 breast = test system: MDA-MB-468 breast
MOLT-4 leukemia = test system: MOLT-4 leukemia
NCI-H226 lung = test system: NCI-H226 lung
NCI-H23 lung = test system: NCI-H23 lung
NCI-H322M lung = test system: NCI-H322M lung
NCI-H460 NSCLC = test system: NCI-H460 NSCLC
NCI-H522 lung = test system: NCI-H522 lung
NCI/ADR-RES ovarian = test system: NCI/ADR-RES ovarian
OVCAR-3 ovarian = test system: OVCAR-3 ovarian
OVCAR-4 ovarian = test system: OVCAR-4 ovarian
OVCAR-5 ovarian = test system: OVCAR-5 ovarian
OVCAR-8 ovarian = test system: OVCAR-8 ovarian
PC-3 prostate = test system: PC-3 prostate
RPMI-8226 leukemia = test system: RPMI-8226 leukemia
RXF 393 renal = test system: RXF 393 renal
SF-268 CNS = test system: SF-268 CNS
SF-295 CNS = test system: SF-295 CNS
SF-539 CNS = test system: SF-539 CNS
SK-MEL-2 melanoma = test system: SK-MEL-2 melanoma
SK-MEL-28 melanoma = test system: SK-MEL-28 melanoma
SK-MEL-5 melanoma = test system: SK-MEL-5 melanoma
SK-OV-3 ovarian = test system: SK-OV-3 ovarian
SN12C renal = test system: SN12C renal
SNB-19 CNS = test system: SNB-19 CNS
SNB-75 CNS = test system: SNB-75 CNS
SW-620 colon = test system: SW-620 colon
T-47D breast = test system: T-47D breast
TK-10 renal = test system: TK-10 renal
U251 glioblastoma = test system: U251 glioblastoma
UACC-257 melanoma = test system: UACC-257 melanoma
UACC-62 melanoma = test system: UACC-62 melanoma
UO-31 renal = test system: UO-31 renal
HL-60(TB) leukemia = test system: HL-60(TB) leukemia
SR leukemia = test system: SR leukemia

## Cc1cc(C(=O)N[C@@H](CCC(=O)O)C(=O)O)sc1CC[C@@H]1CNc2nc(N)[nH]c(=O)c2C1
786-0 renal
  GI50: < 10 nM
  TGI: < 10 nM
A498 renal
  GI50: < 10 nM
  TGI: 14.9 nM
A549 NSCLC
  GI50: 21.5 nM
  TGI: 46 nM
ACHN renal
  GI50: < 10 nM
  TGI: 22.5 nM
BT-549 breast
  GI50: 18.3 nM
  TGI: 35 nM
CAKI-1 renal
  GI50: < 10 nM
  TGI: < 10 nM
CCRF-CEM leukemia
  GI50: < 10 nM
  TGI: < 10 nM
COLO 205 colon
  GI50: 25.4 nM
  TGI: 56.1 nM
DU-145 prostate
  GI50: < 10 nM
  TGI: < 10 nM
EKVX NSCLC
  GI50: 11.4 nM
  TGI: 27.4 nM
HCC-2998 colon
  GI50: 33.2 nM
  TGI: 1030 nM
HCT-116 colon
  GI50: < 10 nM
  TGI: 24 nM
HCT-15 colon
  GI50: 25 nM
  TGI: 57.8 nM
HOP-62 NSCLC
  GI50: 17.9 nM
  TGI: 37.8 nM
HOP-92 NSCLC
  GI50: < 10 nM
  TGI: < 10 nM
HS 578T breast
  GI50: 15.8 nM
  TGI: 38.2 nM
HT29 colon
  GI50: 17.4 nM
  TGI: 37.2 nM
IGROV1 ovarian
  GI50: 19.9 nM
  TGI: 40 nM
K-562 leukemia
  GI50: < 10 nM
  TGI: < 10 nM
KM12 colon
  GI50: 28.5 nM
  TGI: 72.7 nM
LOX IMVI melanoma
  GI50: 20 nM
  TGI: 40 nM
M14 melanoma
  GI50: < 10 nM
  TGI: 20.1 nM
MALME-3M melanoma
  GI50: 20 nM
  TGI: 37.2 nM
MCF7 breast
  GI50: 15.7 nM
  TGI: 37 nM
MDA-MB-231 breast
  GI50: 345 nM
  TGI: 1200 nM
MDA-MB-435 melanoma
  GI50: 18.5 nM
  TGI: 36.4 nM
MDA-MB-468 breast
  GI50: 19.4 nM
  TGI: 41.6 nM
MOLT-4 leukemia
  GI50: < 10 nM
  TGI: < 10 nM
NCI-H226 lung
  GI50: 17.2 nM
  TGI: 39.4 nM
NCI-H23 lung
  GI50: 39.2 nM
  TGI: 157 nM
NCI-H322M lung
  GI50: 20.2 nM
  TGI: 39.4 nM
NCI-H460 NSCLC
  GI50: < 10 nM
  TGI: 82.7 nM
NCI-H522 lung
  GI50: 12.7 nM
  TGI: 28.5 nM
NCI/ADR-RES ovarian
  GI50: 20.1 nM
  TGI: 37.3 nM
OVCAR-3 ovarian
  GI50: 19 nM
  TGI: 41.2 nM
OVCAR-4 ovarian
  GI50: 20.6 nM
  TGI: 43.5 nM
OVCAR-5 ovarian
  GI50: 10.1 nM
  TGI: 23.8 nM
OVCAR-8 ovarian
  GI50: 17 nM
  TGI: 34.6 nM
PC-3 prostate
  GI50: < 10 nM
  TGI: < 10 nM
RPMI-8226 leukemia
  GI50: 18.2 nM
  TGI: 36.3 nM
RXF 393 renal
  GI50: < 10 nM
  TGI: 16.2 nM
SF-268 CNS
  GI50: < 10 nM
  TGI: 20.8 nM
SF-295 CNS
  GI50: 19.4 nM
  TGI: 36.8 nM
SF-539 CNS
  GI50: < 10 nM
  TGI: 21 nM
SK-MEL-2 melanoma
  GI50: < 10 nM
  TGI: 14.7 nM
SK-MEL-28 melanoma
  GI50: 18.4 nM
  TGI: 35.9 nM
SK-MEL-5 melanoma
  GI50: 30.5 nM
  TGI: 135 nM
SK-OV-3 ovarian
  GI50: < 10 nM
  TGI: 24.5 nM
SN12C renal
  GI50: < 10 nM
  TGI: < 10 nM
SNB-19 CNS
  GI50: < 10 nM
  TGI: 23.1 nM
SNB-75 CNS
  GI50: < 10 nM
  TGI: < 10 nM
SW-620 colon
  GI50: 12.4 nM
  TGI: 30.1 nM
T-47D breast
  GI50: 21.7 nM
  TGI: 60.1 nM
TK-10 renal
  GI50: < 10 nM
  TGI: < 10 nM
U251 glioblastoma
  GI50: < 10 nM
  TGI: < 10 nM
UACC-257 melanoma
  GI50: 10.2 nM
  TGI: 27.7 nM
UACC-62 melanoma
  GI50: 21 nM
  TGI: 50.1 nM
UO-31 renal
  GI50: < 10 nM
  TGI: 11.6 nM

## NC(=O)c1ccc2nc(-c3ccc(C4(N)CCC4)cc3)c(-c3ccccc3)n2n1
786-0 renal
  GI50: 2220 nM
  TGI: 13600 nM
A498 renal
  GI50: 389 nM
  TGI: 10600 nM
A549 NSCLC
  GI50: 5310 nM
  TGI: 18600 nM
ACHN renal
  GI50: 11200 nM
  TGI: 23300 nM
BT-549 breast
  GI50: 2010 nM
  TGI: 15200 nM
CAKI-1 renal
  GI50: 2540 nM
  TGI: 16800 nM
CCRF-CEM leukemia
  GI50: 498 nM
  TGI: 10700 nM
COLO 205 colon
  GI50: 2280 nM
  TGI: 16900 nM
DU-145 prostate
  GI50: 11800 nM
  TGI: 24600 nM
EKVX NSCLC
  GI50: 5350 nM
  TGI: 20300 nM
HCC-2998 colon
  GI50: 11200 nM
  TGI: 23200 nM
HCT-116 colon
  GI50: 5690 nM
  TGI: 18900 nM
HCT-15 colon
  GI50: 11900 nM
  TGI: 24400 nM
HL-60(TB) leukemia
  GI50: 4260 nM
  TGI: 17000 nM
HOP-62 NSCLC
  GI50: 12100 nM
  TGI: 24500 nM
HOP-92 NSCLC
  GI50: 5020 nM
  TGI: 18700 nM
HS 578T breast
  GI50: 1780 nM
  TGI: 11800 nM
HT29 colon
  GI50: 2620 nM
  TGI: 17900 nM
IGROV1 ovarian
  GI50: 250 nM
  TGI: 11700 nM
K-562 leukemia
  GI50: 4200 nM
  TGI: 16200 nM
KM12 colon
  GI50: 7110 nM
  TGI: 20400 nM
LOX IMVI melanoma
  GI50: 8430 nM
  TGI: 20700 nM
M14 melanoma
  GI50: 12800 nM
  TGI: 25500 nM
MALME-3M melanoma
  GI50: 2140 nM
  TGI: 17100 nM
MCF7 breast
  GI50: 125 nM
  TGI: 12400 nM
MDA-MB-231 breast
  GI50: 11400 nM
  TGI: 23700 nM
MDA-MB-435 melanoma
  GI50: 12600 nM
  TGI: 25200 nM
MDA-MB-468 breast
  GI50: 125 nM
  TGI: 8310 nM
MOLT-4 leukemia
  GI50: 305 nM
  TGI: 1930 nM
NCI-H226 lung
  GI50: 8960 nM
  TGI: 21500 nM
NCI-H23 lung
  GI50: 4850 nM
  TGI: 17500 nM
NCI-H322M lung
  GI50: 9270 nM
  TGI: 21600 nM
NCI-H460 NSCLC
  GI50: 1130 nM
  TGI: 15800 nM
NCI-H522 lung
  GI50: 13700 nM
  TGI: 26600 nM
NCI/ADR-RES ovarian
  GI50: 15300 nM
  TGI: 29300 nM
OVCAR-3 ovarian
  GI50: 683 nM
  TGI: 18000 nM
OVCAR-4 ovarian
  GI50: 14600 nM
  TGI: 28200 nM
OVCAR-8 ovarian
  GI50: 12800 nM
  TGI: 25500 nM
PC-3 prostate
  GI50: 250 nM
  TGI: 12800 nM
RPMI-8226 leukemia
  GI50: 2390 nM
  TGI: 10300 nM
RXF 393 renal
  GI50: 1600 nM
  TGI: 10700 nM
SF-268 CNS
  GI50: 12300 nM
  TGI: 24800 nM
SF-295 CNS
  GI50: 944 nM
  TGI: 11000 nM
SF-539 CNS
  GI50: 3590 nM
  TGI: 16600 nM
SK-MEL-28 melanoma
  GI50: 6420 nM
  TGI: 20200 nM
SK-MEL-5 melanoma
  GI50: 3810 nM
  TGI: 16300 nM
SK-OV-3 ovarian
  GI50: 538 nM
  TGI: 12700 nM
SN12C renal
  GI50: 8080 nM
  TGI: 20900 nM
SNB-19 CNS
  GI50: 13000 nM
  TGI: 25900 nM
SNB-75 CNS
  GI50: 1250 nM
  TGI: 14600 nM
SR leukemia
  GI50: 230 nM
  TGI: 990 nM
SW-620 colon
  GI50: 15800 nM
  TGI: 29300 nM
T-47D breast
  GI50: 28.2 nM
  TGI: 2990 nM
TK-10 renal
  GI50: 5700 nM
  TGI: 20500 nM
U251 glioblastoma
  GI50: 10400 nM
  TGI: 22200 nM
UACC-257 melanoma
  GI50: 11300 nM
  TGI: 23400 nM
UACC-62 melanoma
  GI50: 3010 nM
  TGI: 16400 nM
UO-31 renal
  GI50: 2910 nM
  TGI: 16000 nM
